Assay [1] concerns the target T1, Glycogen phosphorylase, liver form (Homo sapiens, UniProt P06737).
T1 sequence (P06737 whole entry): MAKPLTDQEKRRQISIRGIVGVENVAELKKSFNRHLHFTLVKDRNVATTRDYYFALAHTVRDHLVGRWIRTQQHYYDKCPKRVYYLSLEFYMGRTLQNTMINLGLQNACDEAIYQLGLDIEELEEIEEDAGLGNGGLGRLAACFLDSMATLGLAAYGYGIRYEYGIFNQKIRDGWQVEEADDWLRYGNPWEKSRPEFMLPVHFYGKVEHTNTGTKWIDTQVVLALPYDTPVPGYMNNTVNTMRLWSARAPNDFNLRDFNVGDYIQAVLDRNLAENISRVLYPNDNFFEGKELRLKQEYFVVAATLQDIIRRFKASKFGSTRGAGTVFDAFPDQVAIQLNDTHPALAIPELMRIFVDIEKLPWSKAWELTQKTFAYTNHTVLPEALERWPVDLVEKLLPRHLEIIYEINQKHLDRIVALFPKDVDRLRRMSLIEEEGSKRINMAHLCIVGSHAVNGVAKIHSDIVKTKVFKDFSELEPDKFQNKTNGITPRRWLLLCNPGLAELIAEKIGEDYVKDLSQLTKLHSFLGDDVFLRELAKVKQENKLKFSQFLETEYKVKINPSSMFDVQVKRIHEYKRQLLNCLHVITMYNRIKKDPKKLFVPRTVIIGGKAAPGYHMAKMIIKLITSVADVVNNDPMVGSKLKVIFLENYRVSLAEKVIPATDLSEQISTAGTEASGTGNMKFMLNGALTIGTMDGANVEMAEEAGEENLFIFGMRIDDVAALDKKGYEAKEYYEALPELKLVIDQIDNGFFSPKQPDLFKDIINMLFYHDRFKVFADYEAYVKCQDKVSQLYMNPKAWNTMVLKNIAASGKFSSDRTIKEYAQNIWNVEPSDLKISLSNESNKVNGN
Type of assay: subcellular, K-562, COLO 205, SK-N-BE(2) and MV-4-11, Cell lysate. Conditions: read-out: Kd apparent.

The target of assay [2] is AP2-associated protein kinase 1 (Homo sapiens, UniProt Q2M2I8).
For assay [3], the target named is T2, AarF domain-containing protein kinase 1 (Homo sapiens, UniProt Q86TW2).
T2 sequence (Q86TW2 whole entry): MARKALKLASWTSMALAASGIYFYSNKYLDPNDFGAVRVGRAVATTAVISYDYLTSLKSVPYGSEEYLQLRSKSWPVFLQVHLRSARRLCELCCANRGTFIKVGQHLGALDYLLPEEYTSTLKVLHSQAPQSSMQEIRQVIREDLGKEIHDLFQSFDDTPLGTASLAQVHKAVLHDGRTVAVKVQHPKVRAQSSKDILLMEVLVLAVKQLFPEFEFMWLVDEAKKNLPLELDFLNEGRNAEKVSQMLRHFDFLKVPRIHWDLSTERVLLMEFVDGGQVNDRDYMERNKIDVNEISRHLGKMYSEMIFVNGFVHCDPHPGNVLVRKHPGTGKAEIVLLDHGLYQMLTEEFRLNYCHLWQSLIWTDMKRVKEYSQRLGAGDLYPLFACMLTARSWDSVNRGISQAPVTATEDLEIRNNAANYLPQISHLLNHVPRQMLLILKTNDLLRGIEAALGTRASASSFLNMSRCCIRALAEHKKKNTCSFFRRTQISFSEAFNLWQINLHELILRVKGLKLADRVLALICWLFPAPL

In assay [4] the target is Cyclin-dependent kinase 2 (Homo sapiens, UniProt P24941).
For assay [5], the target named is Casein kinase I isoform epsilon (Homo sapiens, UniProt P49674).
Assay [6] deals with ATP-dependent RNA helicase DDX3X (Homo sapiens, UniProt O00571).
For assay [7], the target named is S-adenosylmethionine synthase isoform type-2 (Homo sapiens, UniProt P31153).
Assay [8] concerns the target T3, Serine/threonine-protein kinase Nek2 (Homo sapiens, UniProt P51955).
T3 sequence (P51955 whole entry): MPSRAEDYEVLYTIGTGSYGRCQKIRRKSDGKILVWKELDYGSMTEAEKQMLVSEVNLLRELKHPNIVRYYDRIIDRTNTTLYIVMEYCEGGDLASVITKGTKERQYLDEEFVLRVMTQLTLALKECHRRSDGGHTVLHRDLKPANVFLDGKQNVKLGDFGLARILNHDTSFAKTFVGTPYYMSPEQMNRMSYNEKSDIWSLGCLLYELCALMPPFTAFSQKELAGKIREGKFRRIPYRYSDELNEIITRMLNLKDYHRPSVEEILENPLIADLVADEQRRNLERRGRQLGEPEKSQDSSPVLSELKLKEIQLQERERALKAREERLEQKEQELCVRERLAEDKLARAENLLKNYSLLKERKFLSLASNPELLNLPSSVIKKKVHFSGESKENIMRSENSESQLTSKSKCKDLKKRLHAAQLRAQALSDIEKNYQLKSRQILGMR

The target in a further assay is T4, Pyridoxal kinase (Homo sapiens, UniProt O00764).
T4 sequence (O00764 whole entry): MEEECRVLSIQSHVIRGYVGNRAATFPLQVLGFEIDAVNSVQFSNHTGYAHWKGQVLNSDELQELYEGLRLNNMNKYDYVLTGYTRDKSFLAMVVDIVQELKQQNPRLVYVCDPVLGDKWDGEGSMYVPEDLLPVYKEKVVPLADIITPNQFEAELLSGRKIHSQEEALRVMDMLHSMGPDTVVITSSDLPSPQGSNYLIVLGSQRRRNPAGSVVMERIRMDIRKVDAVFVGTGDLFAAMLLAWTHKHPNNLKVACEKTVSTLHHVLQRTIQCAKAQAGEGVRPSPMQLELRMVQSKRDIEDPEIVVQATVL

For assay [9], the target named is Protein kinase C alpha type (Homo sapiens, UniProt P17252).
Assay [10] addresses T5, Ras-related protein Rab-27A (Homo sapiens, UniProt P51159).
T5 sequence (P51159 whole entry): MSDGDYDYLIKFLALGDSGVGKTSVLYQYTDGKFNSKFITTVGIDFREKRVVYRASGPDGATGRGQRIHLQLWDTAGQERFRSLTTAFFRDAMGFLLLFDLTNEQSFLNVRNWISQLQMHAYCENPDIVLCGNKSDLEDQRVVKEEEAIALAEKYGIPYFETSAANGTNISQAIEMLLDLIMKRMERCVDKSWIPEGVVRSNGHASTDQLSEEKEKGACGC

Assay [11] has as its target Rho-associated protein kinase 2 (Homo sapiens, UniProt O75116).
A further assay has as its target TGF-beta receptor type-2 (Homo sapiens, UniProt P37173).

Activity calls are given as the source filed them. For most assays here, no stated cut-off is given here; in the data, actives have a measured Kd and inactives only a lower limit. A value given as a limit tells only on which side of the number the result lay.

Sequence of Rho-associated protein kinase 2 (O75116 whole entry): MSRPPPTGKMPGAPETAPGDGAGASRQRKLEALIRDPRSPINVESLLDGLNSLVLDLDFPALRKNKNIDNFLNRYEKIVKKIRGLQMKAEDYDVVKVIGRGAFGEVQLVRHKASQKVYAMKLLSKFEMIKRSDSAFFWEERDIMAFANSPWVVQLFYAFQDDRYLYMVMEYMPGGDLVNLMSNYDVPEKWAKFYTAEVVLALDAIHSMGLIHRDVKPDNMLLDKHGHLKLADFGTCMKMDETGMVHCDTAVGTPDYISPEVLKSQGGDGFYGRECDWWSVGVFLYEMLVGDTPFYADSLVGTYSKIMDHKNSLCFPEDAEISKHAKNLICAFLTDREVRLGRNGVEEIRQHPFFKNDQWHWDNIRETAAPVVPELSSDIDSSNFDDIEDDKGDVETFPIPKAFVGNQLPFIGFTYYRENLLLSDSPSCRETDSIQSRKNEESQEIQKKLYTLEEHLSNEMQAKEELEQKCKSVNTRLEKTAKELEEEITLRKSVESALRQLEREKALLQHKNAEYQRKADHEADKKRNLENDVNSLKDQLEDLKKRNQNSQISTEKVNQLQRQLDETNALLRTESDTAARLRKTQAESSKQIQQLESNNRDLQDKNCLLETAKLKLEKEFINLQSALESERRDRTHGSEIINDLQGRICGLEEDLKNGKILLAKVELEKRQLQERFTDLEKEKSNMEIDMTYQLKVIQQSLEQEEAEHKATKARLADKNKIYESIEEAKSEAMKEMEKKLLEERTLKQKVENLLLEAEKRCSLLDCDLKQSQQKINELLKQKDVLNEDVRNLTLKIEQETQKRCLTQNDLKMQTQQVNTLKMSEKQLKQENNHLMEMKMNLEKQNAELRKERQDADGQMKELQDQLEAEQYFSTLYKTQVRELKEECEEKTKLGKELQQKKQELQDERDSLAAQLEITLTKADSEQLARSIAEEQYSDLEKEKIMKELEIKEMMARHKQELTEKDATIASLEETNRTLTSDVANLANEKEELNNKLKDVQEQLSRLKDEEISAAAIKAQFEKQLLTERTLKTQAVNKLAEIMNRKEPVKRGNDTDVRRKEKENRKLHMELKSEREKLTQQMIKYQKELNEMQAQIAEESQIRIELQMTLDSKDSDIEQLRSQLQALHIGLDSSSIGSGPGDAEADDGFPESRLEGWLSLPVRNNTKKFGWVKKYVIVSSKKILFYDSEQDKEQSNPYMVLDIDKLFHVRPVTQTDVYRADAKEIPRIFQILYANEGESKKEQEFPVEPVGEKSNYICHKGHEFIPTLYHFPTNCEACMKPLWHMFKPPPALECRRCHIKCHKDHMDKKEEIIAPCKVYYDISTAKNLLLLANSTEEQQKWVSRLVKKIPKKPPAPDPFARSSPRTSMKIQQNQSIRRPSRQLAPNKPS
Sequence of TGF-beta receptor type-2 (P37173 whole entry): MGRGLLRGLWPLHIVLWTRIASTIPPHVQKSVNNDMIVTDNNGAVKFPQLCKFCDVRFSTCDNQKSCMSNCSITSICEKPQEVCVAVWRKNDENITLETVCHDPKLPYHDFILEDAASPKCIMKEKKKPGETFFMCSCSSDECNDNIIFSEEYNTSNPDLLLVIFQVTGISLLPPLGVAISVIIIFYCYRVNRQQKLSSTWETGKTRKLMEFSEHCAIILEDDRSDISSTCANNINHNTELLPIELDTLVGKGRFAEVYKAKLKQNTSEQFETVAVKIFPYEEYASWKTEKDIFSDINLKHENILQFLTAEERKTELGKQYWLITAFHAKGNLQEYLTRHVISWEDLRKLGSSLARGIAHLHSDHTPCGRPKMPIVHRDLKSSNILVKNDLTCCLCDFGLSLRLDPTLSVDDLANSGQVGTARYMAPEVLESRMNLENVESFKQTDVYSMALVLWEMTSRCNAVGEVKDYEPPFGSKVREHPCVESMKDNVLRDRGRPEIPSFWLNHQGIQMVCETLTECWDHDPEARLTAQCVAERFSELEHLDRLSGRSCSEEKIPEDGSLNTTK
Sequence of ATP-dependent RNA helicase DDX3X (O00571 whole entry, canonical isoform): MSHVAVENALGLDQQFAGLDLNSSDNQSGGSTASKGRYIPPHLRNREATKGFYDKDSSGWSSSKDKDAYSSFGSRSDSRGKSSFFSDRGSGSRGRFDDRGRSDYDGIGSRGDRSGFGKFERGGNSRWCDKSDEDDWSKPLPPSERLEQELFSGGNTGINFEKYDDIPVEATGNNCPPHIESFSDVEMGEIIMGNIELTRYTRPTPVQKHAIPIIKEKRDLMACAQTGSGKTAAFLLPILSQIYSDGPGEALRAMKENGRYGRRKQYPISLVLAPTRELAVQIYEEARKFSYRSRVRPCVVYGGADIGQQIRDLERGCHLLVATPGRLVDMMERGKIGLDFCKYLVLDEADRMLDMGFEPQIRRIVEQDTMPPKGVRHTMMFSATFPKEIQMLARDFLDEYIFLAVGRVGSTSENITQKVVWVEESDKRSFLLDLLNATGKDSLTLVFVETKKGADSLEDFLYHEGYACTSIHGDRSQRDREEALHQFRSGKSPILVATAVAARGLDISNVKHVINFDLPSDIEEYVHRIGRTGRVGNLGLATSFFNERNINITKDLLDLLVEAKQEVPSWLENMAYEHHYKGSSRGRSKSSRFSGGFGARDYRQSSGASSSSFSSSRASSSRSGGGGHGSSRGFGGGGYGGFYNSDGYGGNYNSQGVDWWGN
Sequence of S-adenosylmethionine synthase isoform type-2 (P31153 whole entry, canonical isoform): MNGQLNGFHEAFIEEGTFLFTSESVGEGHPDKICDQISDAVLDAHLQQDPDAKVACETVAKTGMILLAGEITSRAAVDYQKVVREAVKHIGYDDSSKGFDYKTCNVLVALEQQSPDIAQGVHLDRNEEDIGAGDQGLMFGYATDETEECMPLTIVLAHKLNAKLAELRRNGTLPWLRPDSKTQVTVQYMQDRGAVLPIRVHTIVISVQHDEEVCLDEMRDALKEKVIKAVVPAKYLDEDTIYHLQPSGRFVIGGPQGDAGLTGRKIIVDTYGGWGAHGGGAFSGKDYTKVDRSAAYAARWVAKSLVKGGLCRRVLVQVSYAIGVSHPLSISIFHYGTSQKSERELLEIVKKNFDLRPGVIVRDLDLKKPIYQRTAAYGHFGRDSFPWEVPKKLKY
Sequence of AP2-associated protein kinase 1 (Q2M2I8 whole entry, the tested form may be a part): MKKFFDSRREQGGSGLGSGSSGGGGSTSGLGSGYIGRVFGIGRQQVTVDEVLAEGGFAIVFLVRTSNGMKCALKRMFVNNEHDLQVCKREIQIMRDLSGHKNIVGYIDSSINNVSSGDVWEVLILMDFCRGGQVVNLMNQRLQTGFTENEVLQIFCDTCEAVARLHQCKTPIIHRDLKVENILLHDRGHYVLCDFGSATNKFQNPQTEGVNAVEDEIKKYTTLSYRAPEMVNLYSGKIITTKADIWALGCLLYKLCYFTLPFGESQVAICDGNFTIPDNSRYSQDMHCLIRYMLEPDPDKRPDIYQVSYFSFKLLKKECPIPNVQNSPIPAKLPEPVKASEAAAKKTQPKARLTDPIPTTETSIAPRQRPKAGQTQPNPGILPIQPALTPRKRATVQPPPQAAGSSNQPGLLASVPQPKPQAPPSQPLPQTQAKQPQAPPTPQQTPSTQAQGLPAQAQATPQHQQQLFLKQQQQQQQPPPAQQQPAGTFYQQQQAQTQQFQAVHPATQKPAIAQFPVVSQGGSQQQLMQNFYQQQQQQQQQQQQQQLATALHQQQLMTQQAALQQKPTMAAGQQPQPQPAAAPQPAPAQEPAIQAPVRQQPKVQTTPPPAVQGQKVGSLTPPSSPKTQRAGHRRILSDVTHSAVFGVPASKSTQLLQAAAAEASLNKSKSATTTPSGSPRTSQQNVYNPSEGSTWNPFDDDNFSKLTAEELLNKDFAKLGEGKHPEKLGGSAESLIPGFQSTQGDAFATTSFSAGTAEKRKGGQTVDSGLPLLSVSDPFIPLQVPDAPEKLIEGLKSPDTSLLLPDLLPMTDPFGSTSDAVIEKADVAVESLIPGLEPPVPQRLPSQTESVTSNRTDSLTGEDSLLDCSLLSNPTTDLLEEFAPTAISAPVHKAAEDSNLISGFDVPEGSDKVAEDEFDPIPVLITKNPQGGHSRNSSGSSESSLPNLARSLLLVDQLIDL
Sequence of Casein kinase I isoform epsilon (P49674 whole entry, canonical isoform): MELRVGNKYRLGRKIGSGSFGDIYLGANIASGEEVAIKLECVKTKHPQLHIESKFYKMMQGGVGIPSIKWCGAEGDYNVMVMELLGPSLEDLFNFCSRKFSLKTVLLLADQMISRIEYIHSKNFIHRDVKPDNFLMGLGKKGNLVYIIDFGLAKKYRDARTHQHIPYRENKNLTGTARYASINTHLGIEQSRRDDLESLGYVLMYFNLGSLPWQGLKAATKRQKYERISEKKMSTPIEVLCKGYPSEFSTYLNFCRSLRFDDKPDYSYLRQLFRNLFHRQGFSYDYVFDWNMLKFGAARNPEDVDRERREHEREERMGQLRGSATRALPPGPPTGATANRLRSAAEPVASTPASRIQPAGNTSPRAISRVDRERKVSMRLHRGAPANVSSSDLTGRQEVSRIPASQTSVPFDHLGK

As to `COc1cc2ncnc3c2cc1OCCCCCN(C)Cc1ccc(Br)cc1N3` [JNJ-26483327], the Kd in assay [1], in [2], in [3], in [4], in [5] and in assay [6] was > 30 µM (inactive) each time. Also, the Kd (in assay [7]; in assay [8]; on Pyridoxal kinase; in [9]; in [10]; in assay [11]) was > 30 µM (inactive) in each case. Moreover, the Kd at TGF-beta receptor type-2 was > 30 µM (inactive).

For `CCc1cc2c(cc1N1CCC(N3CCOCC3)CC1)C(C)(C)c1[nH]c3cc(C#N)ccc3c1C2=O` [ALECTINIB], the Kd in assay [1], in assay [2], in [3], in assay [4], in assay [5] and in [6] was > 30 µM (inactive) throughout. The Kd (in assay [7]; in assay [8]; at Pyridoxal kinase; in [9]; in [10]; in assay [11]) was > 30 µM (inactive) each time. In addition, the Kd on TGF-beta receptor type-2 was > 30 µM (inactive).

Take `COc1cc2ncnc(Nc3ccc(F)c(Cl)c3)c2cc1NC(=O)/C=C/CN1CCCCC1` [DACOMITINIB ANHYDROUS]: the Kd in [1], in assay [2], in [3], in assay [4], in [5] and in [6] was > 30 µM (inactive) each time. Further, the Kd (in [7]; in assay [8]; on Pyridoxal kinase; in assay [9]; in assay [10]; in assay [11]) was > 30 µM (inactive) each time. The Kd on TGF-beta receptor type-2 is > 30 µM (inactive).

With `Cc1c(NC(=O)OC[C@@H]2COCCN2)cn2ncnc(Nc3ccc4c(cnn4Cc4cccc(F)c4)c3)c12` [AC-480], the Kd in [1], in [2], in assay [3], in assay [4], in assay [5] and in assay [6] was > 30 µM (inactive) each time. Also, the Kd (in assay [7]; in [8]; at Pyridoxal kinase; in [9]; in assay [10]; in [11]) was > 30 µM (inactive) each time. On TGF-beta receptor type-2, the Kd is > 30 µM (inactive).

As for `Cc1cc(-c2cc(OC(=O)c3ccccc3)ccc2Cl)cc2nnc(Nc3ccc(OCCN4CCCC4)cc3)nc12` [TG100-801], the Kd in assay [1], in [2], in assay [3], in [4], in [5] and in [6] was > 30 µM (inactive) each time. In addition, the Kd (in assay [7]; in [8]; at Pyridoxal kinase; in [9]; in assay [10]; in assay [11]) was > 30 µM (inactive) each time. Further, the Kd on TGF-beta receptor type-2 was 0.703 µM (active).

Regarding `COc1cc2nccc(Oc3ccc(NC(=O)C4(C(=O)Nc5ccc(F)cc5)CC4)cc3)c2cc1OC` [CABOZANTINIB], the Kd in assay [1], in [2], in [3], in [4], in assay [5] and in [6] was > 30 µM (inactive) in each case. The Kd (in [7]; in assay [8]; on Pyridoxal kinase; in assay [9]; in [10]; in assay [11]) was > 30 µM (inactive) each time. Moreover, the Kd at TGF-beta receptor type-2 was > 30 µM (inactive).

With `Cc1cc(Nc2nc(N[C@@H](C)c3ncc(F)cn3)ncc2Cl)n[nH]1` [AZD-1480], the Kd in assay [1], in assay [2], in [3], in assay [4], in assay [5] and in assay [6] was > 30 µM (inactive) each time. In addition, the Kd (in assay [7]; in assay [8]; on Pyridoxal kinase; in assay [9]; in assay [10]; in assay [11]) was > 30 µM (inactive) in each case. For the same compound, the Kd on TGF-beta receptor type-2 is > 30 µM (inactive).

Take `Cc1ccc(C(=O)Nc2ccc(Oc3cc4cnn(C)c4cc3-c3cn[nH]c3)c(F)c2)c(=O)n1-c1ccc(F)cc1` [MERESTINIB]: the Kd in [1], in [2], in assay [3], in assay [4], in assay [5] and in [6] was > 30 µM (inactive) throughout. Moreover, the Kd (in assay [7]; in [8]; on Pyridoxal kinase; in assay [9]; in [10]; in assay [11]) was > 30 µM (inactive) each time. In addition, at TGF-beta receptor type-2, the Kd was > 30 µM (inactive).

The values are drawn from ChEMBL document CHEMBL3991601, “The target landscape of clinical kinase drugs” (Science, 2017).
